Converted amounts (≈) assume the structure as drawn. Like-named read-outs stand apart in the source and are kept apart here.
Columns and labels:
MRSE 35984 [1] = test: MIC broth microdilution assay; type: cell-based, Staphylococcus epidermidis; conditions: Staphylococcus epidermidis, MRSE
MRSA BAA-44 = test: MIC broth microdilution assay; type: cell-based; conditions: Staphylococcus aureus; Table 1; read-out: MIC MRSA BAA-44
VRE 700221 [2] = test: MIC broth microdilution assay; type: cell-based, Enterococcus faecium; conditions: Enterococcus, VRE
S. epi 12228 = test: MIC broth microdilution assay; type: cell-based, Staphylococcus epidermidis
MRSA-2 = test: MIC broth microdilution assay; type: cell-based, Staphylococcus aureus; conditions: Staphylococcus aureus, MRSA; Table 1; read-out: MIC MRSA-2
MRSA-1 = test: MIC broth microdilution assay; type: cell-based, Staphylococcus aureus; conditions: Staphylococcus aureus, MRSA; Table 1; read-out: MIC MRSA-1
MRSA BAA-1707 [3] = test: MIC broth microdilution assay; type: cell-based, Staphylococcus aureus; conditions: Staphylococcus aureus
[4] = Hemolysis assay with red blood cells; conditions: human, pH 7.2
[5] = LDH release assay for HeLa cytotoxicity; type: cell-based; conditions: human, HeLa cells; LDH release, 24 hours; tested at 25, 50 and 100 µM; read-out: HeLa Cytotox. IC50
four MRSA isolates = test: MIC assays, panel of four MRSA isolates; type: cell-based; conditions: Staphylococcus aureus, range over isolates, read-out: MIC against a panel of four MRSA isolates
MtB H37Ra = test: MIC assay for Mycobacterium tuberculosis; type: cell-based
VRE 700221 [6] = test: Calgary Biofilm Device (CBD) MBC/MBEC assay; type: cell-based, Enterococcus faecium; conditions: Enterococcus, VRE; CBD, planktonic killing; read-out: VRE 700221 MBC
MRSA BAA-1707 [7] = test: Calgary Biofilm Device (CBD) MBC/MBEC assay; type: cell-based, Staphylococcus aureus; conditions: for MRSA BAA-1707 MBEC: biofilm eradication
MRSE 35984 [8] = test: Calgary Biofilm Device (CBD) MBC/MBEC assay; type: cell-based, Staphylococcus epidermidis; conditions: Staphylococcus epidermidis, MRSE; CBD, planktonic killing; read-out: MRSE 35984 MBC
[9] = Table 1, read-out: MIC MRSE 35984
[10] = Table 1, read-out: MIC VRE 700221
[11] = Staphylococcus epidermidis, 12228, Table 1, read-out: MIC S. epi 12228
[12] = Table 1, three independent experiments, read-out: MIC MRSA BAA-1707
[13] = single plate shown as picture, read-out: MIC (µM), MIC Assay against MRSA BAA-1707
[14] = Table 3, read-out: MRSE 35984 MIC
[15] = Table 3, read-out: VRE 700221 MIC
[16] = Table 3, read-out: MRSA BAA-1707 MIC
[17] = Staphylococcus epidermidis, 12228, single plate shown as picture, read-out: MIC (µM), MIC Assay Against S. epidermidis 12228

## Cc1cc(Br)c(O)c2nc3cccc(Cl)c3nc12 [HP 11]
MRSE 35984 [1]; [9]
  MIC: 1.56 µM (≈ 0.505 µg/mL)
MRSA BAA-44
  MIC: 3.13 µM (≈ 1.01 µg/mL)
VRE 700221 [2]; [10]
  MIC: 3.13 µM (≈ 1.01 µg/mL)
S. epi 12228; [11]
  MIC: 1.56 µM (≈ 0.505 µg/mL)
MRSA-2
  MIC: 3.13 µM (≈ 1.01 µg/mL)

## Cc1cc(Br)c(O)c2nc3cc(Cl)ccc3nc12 [HP 12]
MRSA-1
  MIC: 75 µM (≈ 24.3 µg/mL)
VRE 700221 [2]; [10]
  MIC: 12.5 µM (≈ 4.04 µg/mL)

## Cc1cc(Br)c(O)c2nc3cccc(Br)c3nc12 [HP 13]
MRSA BAA-1707 [3]; [12]
  MIC: 1.17 µM (≈ 0.431 µg/mL)
MRSA BAA-1707 [3]; [13]
  MIC: 0.78 µM (≈ 0.287 µg/mL)
MRSA-2
  MIC: 2.35 µM (≈ 0.865 µg/mL)

## Cc1cc(Br)c(O)c2nc3cc(Br)ccc3nc12 [HP 14]
MRSE 35984 [1]; [9]
  MIC: 75 µM (≈ 27.6 µg/mL)
MRSA-1
  MIC: 75 µM (≈ 27.6 µg/mL)
MRSA BAA-1707 [3]; [12]
  MIC: 9.38 µM (≈ 3.45 µg/mL)

## Oc1c(Br)cc(Br)c2nc3ccc(Oc4ccccc4)cc3nc12 [HP 16]
MRSA-1
  MIC: 25 µM (≈ 11.2 µg/mL)

## Cc1ccc2nc3c(O)c(Br)cc(Br)c3nc2c1C [HP 19]
[4]
  hemolysis at 1 h, 200 µM: 5.3%
MRSE 35984 [1]; [14]
  MIC: 0.3 µM (≈ 0.115 µg/mL)
MRSE 35984 [1]; single plate shown as picture, read-out: MIC (µM), MIC Assay Against MRSE 35984
  MIC: 0.2 µM (≈ 0.0764 µg/mL)
VRE 700221 [2]; [10]
  MIC: 0.15 to 1.56 µM (≈ 0.0573 to 0.596 µg/mL)
VRE 700221 [2]; [15]
  MIC: 0.15 µM (≈ 0.0573 µg/mL)
VRE 700221 [2]; single plate shown as picture, read-out: MIC (µM), MIC Assay Against VRE 700221
  MIC: 0.2 µM (≈ 0.0764 µg/mL)
[5]
  IC50 at 24 h: > 100 µM
MRSA BAA-1707 [3]; [12]
  MIC: 0.15 µM (≈ 0.0573 µg/mL)
MRSA BAA-1707 [3]; [16]
  MIC: 0.15 µM (≈ 0.0573 µg/mL)
MRSA BAA-1707 [3]; [13]
  MIC: 0.1 µM (≈ 0.0382 µg/mL)
S. epi 12228; [11]
  MIC: 6.25 µM (≈ 2.39 µg/mL)
S. epi 12228; [17]
  MIC: 6.25 µM (≈ 2.39 µg/mL)

## Cc1ccc2nc3c(Br)cc(Br)c(O)c3nc2c1 [HP 20]
MRSE 35984 [1]; [9]
  MIC: 6.25 µM (≈ 2.3 µg/mL)
MRSA BAA-44
  MIC: […]
MRSA-2
  MIC: […]

## Oc1c(Br)cc(Br)c2nc3ccc(Cl)cc3nc12 [HP 22]
[4]
  hemolysis at 1 h, 200 µM: ≤ 1%
MRSA-1
  MIC: 0.15 µM (≈ 0.0583 µg/mL)
Four MRSA isolates
  MIC: 0.05 to 0.59 µM (≈ 0.0194 to 0.229 µg/mL)
[5]
  IC50 at 24 h: > 100 µM
MRSA BAA-1707 [3]; [12]
  MIC: 0.15 µM (≈ 0.0583 µg/mL)
MRSA BAA-1707 [3]; [16]
  MIC: 0.15 µM (≈ 0.0583 µg/mL)
MRSA BAA-1707 [3]; [13]
  MIC: 0.1 µM (≈ 0.0388 µg/mL)
S. epi 12228; [11]
  MIC: 12.5 µM (≈ 4.86 µg/mL)
S. epi 12228; [17]
  MIC: 12.5 µM (≈ 4.86 µg/mL)
MtB H37Ra
  MIC: 2.4 µg/mL
MtB H37Ra; 168 h, seven days
  MIC: 6.25 µM

## CCCCCCCCCC(=O)N[C@@H](Cc1c[nH]c2ccccc12)C(=O)N[C@H](CC(N)=O)C(=O)N[C@@H](CC(=O)O)C(=O)N[C@@H]1C(=O)NCC(=O)N[C@@H](CCCN)C(=O)N[C@@H](CC(=O)O)C(=O)N[C@H](C)C(=O)N[C@@H](CC(=O)O)C(=O)NCC(=O)N[C@H](CO)C(=O)N[C@@H]([C@H](C)CC(=O)O)C(=O)N[C@@H](CC(=O)c2ccccc2N)C(=O)O[C@@H]1C [daptomycin, reference compound]
VRE 700221 [6]
  MBC: 375 µM (≈ 608 µg/mL)
MRSE 35984 [1]; [9]
  MIC: 12.5 µM (≈ 20.3 µg/mL)
MRSE 35984 [1]; [14]
  MIC: 12.5 µM (≈ 20.3 µg/mL)
MRSA BAA-1707 [7]; CBD, 24 hours treatment
  MRSA BAA-1707 MBEC: > 2000 µM
MRSA BAA-1707 [7]; Staphylococcus aureus, 24 h, CBD, planktonic killing, 24 hours treatment, read-out: MRSA BAA-1707 MBC
  MBC: 125 µM (≈ 203 µg/mL)
MRSA BAA-44
  MIC: 18.8 µM (≈ 30.5 µg/mL)
VRE 700221 [2]; [10]
  MIC: 125 µM (≈ 203 µg/mL)
VRE 700221 [2]; [15]
  MIC: 125 µM (≈ 203 µg/mL)
MRSA BAA-1707 [3]; [12]
  MIC: 3.13 µM (≈ 5.07 µg/mL)
MRSA BAA-1707 [3]; [16]
  MIC: 3.13 µM (≈ 5.07 µg/mL)
S. epi 12228; [11]
  MIC: 6.25 µM (≈ 10.1 µg/mL)

## CC(=O)NC[C@H]1CN(c2ccc(N3CCOCC3)c(F)c2)C(=O)O1 [linezolid, reference compound]
MRSE 35984 [1]; [9]
  MIC: 3.13 µM (≈ 1.06 µg/mL)
MRSE 35984 [1]; [14]
  MIC: 3.13 µM (≈ 1.06 µg/mL)
MRSA BAA-1707 [7]; CBD, 24 hours treatment
  MRSA BAA-1707 MBEC: > 2000 µM
MRSA BAA-1707 [7]; Staphylococcus aureus, 24 h, read-out: MRSA BAA-1707 MBC
  MBC: 31.3 µM (≈ 10.6 µg/mL)
MRSA BAA-1707 [7]; Staphylococcus aureus, 24 h, read-out: MRSA BAA-1707 MBEC
  minimal effective concentration: > 2000 µM
VRE 700221 [2]; [10]
  MIC: 3.13 µM (≈ 1.06 µg/mL)
VRE 700221 [2]; [15]
  MIC: 3.13 µM (≈ 1.06 µg/mL)
MRSA BAA-1707 [3]; [12]
  MIC: 12.5 µM (≈ 4.22 µg/mL)
MRSA BAA-1707 [3]; [16]
  MIC: 12.5 µM (≈ 4.22 µg/mL)
MRSA-2
  MIC: 3.13 µM (≈ 1.06 µg/mL)

## [H]/N=C(/N)N[C@H]1[C@H](O)[C@@H](O)[C@H](O[C@@H]2O[C@@H](C)[C@](O)(C=O)[C@H]2O[C@@H]2O[C@@H](CO)[C@H](O)[C@@H](O)[C@@H]2NC)[C@@H](N/C(N)=N\[H])[C@@H]1O [streptomycin, reference compound]
MtB H37Ra; 168 h, seven days
  MIC: 1.32 µM

## CN[C@H](CC(C)C)C(=O)N[C@H]1C(=O)N[C@@H](CC(N)=O)C(=O)N[C@H]2C(=O)N[C@H]3C(=O)N[C@H](C(=O)N[C@H](C(=O)O)c4cc(O)cc(O)c4-c4cc3ccc4O)[C@H](O)c3ccc(c(Cl)c3)Oc3cc2cc(c3O[C@@H]2O[C@H](CO)[C@@H](O)[C@H](O)[C@H]2O[C@H]2C[C@](C)(N)[C@H](O)[C@H](C)O2)Oc2ccc(cc2Cl)[C@H]1O [vancomycin, reference compound]
VRE 700221 [6]
  MBC: > 200 µM
MRSA BAA-1707 [7]; Figure 7A, single CBD plate
  MRSA-1707 Biofilm Eradication MBEC: > 2000 µM
MRSA BAA-1707 [7]; Staphylococcus aureus, Figure 7A, single CBD plate, read-out: MRSA-1707 Planktonic Eradication MBC
  MBC: 3.9 µM (≈ 5.65 µg/mL)
MRSA BAA-1707 [7]; Staphylococcus aureus, CBD, planktonic killing, 24 hours treatment, read-out: MRSA BAA-1707 MBC
  MBC: 3.9 µM (≈ 5.65 µg/mL)
VRE 700221 [2]; read-out: MIC VRE 700221
  MIC: > 100 µM
VRE 700221 [2]; read-out: VRE 700221 MIC
  MIC: > 100 µM
MRSE 35984 [8]
  MBC: 3 µM (≈ 4.35 µg/mL)
S. epi 12228; Staphylococcus epidermidis, 12228, read-out: MIC S. epi 12228
  MIC: 1.17 µM (≈ 1.7 µg/mL)
